In ChEMBL document CHEMBL4354805, “Discovery of MK-8719, a Potent O-GlcNAcase Inhibitor as a Potential Treatment for Tauopathies” (J Med Chem, 2019):

Tests used:
[1] = molecular target: T1, Nuclear receptor subfamily 1 group I member 2 (Homo sapiens, UniProt O75469); test: Activation of PXR (unknown origin) assessed as CYP3A4 induction
T1 sequence (O75469 whole entry): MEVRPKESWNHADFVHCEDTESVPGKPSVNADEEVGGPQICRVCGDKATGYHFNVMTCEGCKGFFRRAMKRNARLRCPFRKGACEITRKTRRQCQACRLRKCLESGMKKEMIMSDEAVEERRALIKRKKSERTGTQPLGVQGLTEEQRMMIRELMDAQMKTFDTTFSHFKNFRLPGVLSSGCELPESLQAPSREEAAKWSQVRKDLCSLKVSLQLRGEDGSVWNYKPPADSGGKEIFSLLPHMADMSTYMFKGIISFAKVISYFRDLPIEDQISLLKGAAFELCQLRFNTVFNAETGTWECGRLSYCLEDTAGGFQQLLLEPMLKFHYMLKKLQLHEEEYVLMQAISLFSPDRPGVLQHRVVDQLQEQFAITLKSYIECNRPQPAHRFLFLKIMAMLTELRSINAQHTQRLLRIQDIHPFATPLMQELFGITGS

[2] = molecular target: T2, Beta-hexosaminidase subunit beta (Homo sapiens, UniProt P07686); test: Inhibition of human beta hexosaminidase assessed as inhibitory constant using 4-methylumbelliferyl N-acetyl-beta-D-glucosaminide dihydrate as substrate measured every 60 sec for 45 mins by fluorescence spectrophotometry
T2 sequence (P07686 whole entry): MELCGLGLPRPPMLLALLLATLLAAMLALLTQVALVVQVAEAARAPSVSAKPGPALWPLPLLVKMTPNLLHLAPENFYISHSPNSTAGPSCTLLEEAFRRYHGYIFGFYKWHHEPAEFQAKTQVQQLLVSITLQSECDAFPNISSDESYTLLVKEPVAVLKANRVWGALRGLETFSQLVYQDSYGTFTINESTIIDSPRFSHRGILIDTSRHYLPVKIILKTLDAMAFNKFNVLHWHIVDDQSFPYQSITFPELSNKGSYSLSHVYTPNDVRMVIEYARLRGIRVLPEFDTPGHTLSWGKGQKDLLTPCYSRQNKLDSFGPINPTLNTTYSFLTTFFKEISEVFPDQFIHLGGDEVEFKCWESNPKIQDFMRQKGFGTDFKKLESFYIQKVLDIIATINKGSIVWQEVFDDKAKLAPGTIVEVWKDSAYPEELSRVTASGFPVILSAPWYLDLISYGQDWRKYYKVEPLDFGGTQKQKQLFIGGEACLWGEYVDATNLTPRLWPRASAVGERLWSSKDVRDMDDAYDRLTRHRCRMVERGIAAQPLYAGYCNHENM

Cytochrome P450 3A4 = Cytochrome P450 3A4 (Homo sapiens, UniProt P08684); test: Inhibition of CYP3A4 (unknown origin); format: ADME
Chain of Cytochrome P450 3A4 (P08684 whole entry): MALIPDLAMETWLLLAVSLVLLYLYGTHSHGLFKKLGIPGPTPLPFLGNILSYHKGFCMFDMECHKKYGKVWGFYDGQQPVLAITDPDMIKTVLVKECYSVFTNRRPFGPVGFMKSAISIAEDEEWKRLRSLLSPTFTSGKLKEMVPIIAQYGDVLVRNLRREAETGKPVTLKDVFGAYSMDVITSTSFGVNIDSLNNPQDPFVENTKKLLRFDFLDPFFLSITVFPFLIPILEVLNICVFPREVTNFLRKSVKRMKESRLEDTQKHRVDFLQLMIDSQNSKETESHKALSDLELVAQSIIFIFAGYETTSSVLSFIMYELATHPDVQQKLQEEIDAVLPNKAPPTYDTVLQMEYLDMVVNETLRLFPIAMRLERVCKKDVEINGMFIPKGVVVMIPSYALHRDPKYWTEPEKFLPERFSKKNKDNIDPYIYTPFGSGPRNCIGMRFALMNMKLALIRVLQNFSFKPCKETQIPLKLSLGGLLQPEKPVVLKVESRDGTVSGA

[3] = molecular target: Voltage-dependent L-type calcium channel subunit alpha-1C (Homo sapiens, UniProt Q13936); test: Inhibition of Cav1.2 (unknown origin)
Cytochrome P450 2C9 = Cytochrome P450 2C9 (Homo sapiens, UniProt P11712); test: Inhibition of CYP2C9 (unknown origin); format: ADME
Chain of Cytochrome P450 2C9 (P11712 whole entry): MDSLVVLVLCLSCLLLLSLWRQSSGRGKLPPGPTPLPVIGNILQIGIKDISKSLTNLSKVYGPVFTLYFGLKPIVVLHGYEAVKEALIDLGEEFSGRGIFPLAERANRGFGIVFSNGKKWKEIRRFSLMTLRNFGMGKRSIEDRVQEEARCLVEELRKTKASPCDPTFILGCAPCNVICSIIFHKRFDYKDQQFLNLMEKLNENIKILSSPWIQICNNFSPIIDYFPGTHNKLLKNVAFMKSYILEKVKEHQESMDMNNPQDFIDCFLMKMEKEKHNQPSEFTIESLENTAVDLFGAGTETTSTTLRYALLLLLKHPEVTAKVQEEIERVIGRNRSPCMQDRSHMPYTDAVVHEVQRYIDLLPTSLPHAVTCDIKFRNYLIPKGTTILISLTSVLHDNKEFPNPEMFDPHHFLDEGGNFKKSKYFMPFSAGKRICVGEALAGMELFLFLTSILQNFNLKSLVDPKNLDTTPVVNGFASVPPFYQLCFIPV

Cytochrome P450 2D6 = Cytochrome P450 2D6 (Homo sapiens, UniProt P10635); test: Inhibition of CYP2D6 (unknown origin); format: ADME
Chain of Cytochrome P450 2D6 (P10635 whole entry): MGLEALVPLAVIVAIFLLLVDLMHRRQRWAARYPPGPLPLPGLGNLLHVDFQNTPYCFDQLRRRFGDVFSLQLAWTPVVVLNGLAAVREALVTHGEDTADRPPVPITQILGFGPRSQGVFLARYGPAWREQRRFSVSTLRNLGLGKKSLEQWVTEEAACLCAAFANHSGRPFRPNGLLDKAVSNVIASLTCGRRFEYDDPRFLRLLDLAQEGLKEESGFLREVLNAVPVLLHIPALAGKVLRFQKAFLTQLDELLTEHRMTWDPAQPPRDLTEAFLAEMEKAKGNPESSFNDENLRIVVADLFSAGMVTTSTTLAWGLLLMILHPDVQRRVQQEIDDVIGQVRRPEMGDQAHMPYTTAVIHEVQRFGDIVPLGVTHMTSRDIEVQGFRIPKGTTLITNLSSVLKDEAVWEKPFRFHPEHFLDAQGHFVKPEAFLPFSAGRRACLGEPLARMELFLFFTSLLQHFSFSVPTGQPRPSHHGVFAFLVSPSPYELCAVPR

MDR1 = test: Apparent permeability in pig LLC-PK1 cells transfected with MDR1; format: ADME, cell-based, Sus scrofa
[4] = molecular target: Sodium channel protein type 5 subunit alpha (Homo sapiens, UniProt Q14524); test: Inhibition of Nav1.5 (unknown origin)
Chain of Sodium channel protein type 5 subunit alpha (Q14524 whole entry): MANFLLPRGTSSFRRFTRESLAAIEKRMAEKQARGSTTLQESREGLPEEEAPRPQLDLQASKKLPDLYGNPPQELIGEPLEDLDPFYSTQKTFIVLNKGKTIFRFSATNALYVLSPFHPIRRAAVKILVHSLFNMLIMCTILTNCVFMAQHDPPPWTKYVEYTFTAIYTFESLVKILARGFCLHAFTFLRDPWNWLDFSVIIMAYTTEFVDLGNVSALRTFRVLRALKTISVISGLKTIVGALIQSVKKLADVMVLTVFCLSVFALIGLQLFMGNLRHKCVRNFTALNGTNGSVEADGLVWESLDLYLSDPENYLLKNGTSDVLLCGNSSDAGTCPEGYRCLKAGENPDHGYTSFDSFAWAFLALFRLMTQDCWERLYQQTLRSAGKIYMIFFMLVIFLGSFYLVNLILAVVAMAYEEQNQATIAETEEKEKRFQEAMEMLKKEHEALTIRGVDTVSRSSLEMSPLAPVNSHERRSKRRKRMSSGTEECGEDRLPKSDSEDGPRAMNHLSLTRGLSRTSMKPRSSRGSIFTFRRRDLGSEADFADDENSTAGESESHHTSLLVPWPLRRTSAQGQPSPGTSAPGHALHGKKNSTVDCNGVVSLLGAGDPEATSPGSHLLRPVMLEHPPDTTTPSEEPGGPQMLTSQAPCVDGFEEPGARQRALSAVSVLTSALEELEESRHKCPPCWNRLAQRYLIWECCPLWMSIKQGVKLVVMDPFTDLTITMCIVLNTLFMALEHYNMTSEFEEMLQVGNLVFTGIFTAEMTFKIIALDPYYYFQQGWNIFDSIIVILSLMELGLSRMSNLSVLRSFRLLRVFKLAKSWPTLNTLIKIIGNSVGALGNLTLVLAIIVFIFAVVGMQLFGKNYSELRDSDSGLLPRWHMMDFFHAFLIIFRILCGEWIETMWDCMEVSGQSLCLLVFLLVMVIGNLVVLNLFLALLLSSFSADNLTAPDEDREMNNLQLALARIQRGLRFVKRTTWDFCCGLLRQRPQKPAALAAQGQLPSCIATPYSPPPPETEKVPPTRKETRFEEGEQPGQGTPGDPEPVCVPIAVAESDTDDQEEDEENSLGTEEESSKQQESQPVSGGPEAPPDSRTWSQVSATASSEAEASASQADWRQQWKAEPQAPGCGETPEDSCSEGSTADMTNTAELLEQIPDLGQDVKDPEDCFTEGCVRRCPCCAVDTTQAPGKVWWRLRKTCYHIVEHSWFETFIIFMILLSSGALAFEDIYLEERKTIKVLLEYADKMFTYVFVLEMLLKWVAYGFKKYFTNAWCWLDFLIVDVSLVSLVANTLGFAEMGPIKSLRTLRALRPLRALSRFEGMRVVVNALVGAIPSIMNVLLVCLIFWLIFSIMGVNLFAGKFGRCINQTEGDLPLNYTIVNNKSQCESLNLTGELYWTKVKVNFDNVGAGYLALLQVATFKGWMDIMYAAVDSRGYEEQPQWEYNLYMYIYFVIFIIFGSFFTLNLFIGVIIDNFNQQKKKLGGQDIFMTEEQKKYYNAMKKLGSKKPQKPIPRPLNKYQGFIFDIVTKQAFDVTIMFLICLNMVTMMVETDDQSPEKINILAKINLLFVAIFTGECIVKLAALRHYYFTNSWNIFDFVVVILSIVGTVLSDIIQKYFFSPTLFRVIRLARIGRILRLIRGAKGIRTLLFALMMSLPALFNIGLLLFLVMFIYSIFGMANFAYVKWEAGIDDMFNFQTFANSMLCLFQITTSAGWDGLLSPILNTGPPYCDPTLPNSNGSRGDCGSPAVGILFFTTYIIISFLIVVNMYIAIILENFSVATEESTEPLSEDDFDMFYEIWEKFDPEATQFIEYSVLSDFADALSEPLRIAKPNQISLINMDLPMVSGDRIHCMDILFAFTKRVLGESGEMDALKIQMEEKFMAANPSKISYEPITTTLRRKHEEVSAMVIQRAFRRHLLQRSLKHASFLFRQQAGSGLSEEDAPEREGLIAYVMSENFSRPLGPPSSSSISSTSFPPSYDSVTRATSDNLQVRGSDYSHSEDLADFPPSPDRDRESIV

[5] = molecular target: Voltage-gated inwardly rectifying potassium channel KCNH2 (Homo sapiens, UniProt Q12809); test: Displacement of MK-0499 from human ERG
Chain of Voltage-gated inwardly rectifying potassium channel KCNH2 (Q12809 whole entry): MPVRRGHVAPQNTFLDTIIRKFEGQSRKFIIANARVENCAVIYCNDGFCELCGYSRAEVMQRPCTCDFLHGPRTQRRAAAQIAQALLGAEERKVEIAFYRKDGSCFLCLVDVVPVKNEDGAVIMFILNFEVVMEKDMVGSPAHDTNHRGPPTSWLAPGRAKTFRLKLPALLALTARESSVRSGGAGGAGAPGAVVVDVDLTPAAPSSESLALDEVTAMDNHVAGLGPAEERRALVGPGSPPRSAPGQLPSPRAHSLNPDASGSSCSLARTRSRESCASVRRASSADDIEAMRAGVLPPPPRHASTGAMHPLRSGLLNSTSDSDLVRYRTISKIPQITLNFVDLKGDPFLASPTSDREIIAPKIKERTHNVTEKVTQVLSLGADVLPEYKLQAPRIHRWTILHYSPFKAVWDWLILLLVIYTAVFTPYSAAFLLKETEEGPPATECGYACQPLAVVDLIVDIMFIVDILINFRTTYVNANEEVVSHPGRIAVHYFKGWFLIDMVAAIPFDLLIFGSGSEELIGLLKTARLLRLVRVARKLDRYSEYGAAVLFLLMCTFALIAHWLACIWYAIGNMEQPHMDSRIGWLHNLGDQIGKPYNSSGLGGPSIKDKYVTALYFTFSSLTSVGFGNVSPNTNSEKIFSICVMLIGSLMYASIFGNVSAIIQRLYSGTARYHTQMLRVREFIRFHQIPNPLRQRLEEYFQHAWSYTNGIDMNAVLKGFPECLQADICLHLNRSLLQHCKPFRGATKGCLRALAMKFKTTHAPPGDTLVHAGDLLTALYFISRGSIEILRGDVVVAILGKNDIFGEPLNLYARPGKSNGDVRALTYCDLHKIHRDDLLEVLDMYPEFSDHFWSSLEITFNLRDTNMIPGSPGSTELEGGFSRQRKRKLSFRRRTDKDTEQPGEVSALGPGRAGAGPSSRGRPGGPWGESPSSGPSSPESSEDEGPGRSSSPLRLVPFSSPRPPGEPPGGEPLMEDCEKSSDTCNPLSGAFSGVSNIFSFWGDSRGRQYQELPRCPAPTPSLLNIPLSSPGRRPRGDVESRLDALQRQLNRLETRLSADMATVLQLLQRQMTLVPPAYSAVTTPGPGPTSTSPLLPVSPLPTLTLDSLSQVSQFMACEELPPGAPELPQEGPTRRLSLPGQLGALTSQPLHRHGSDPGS

Protein O-GlcNAcase [6] = molecular target: T3, Protein O-GlcNAcase (Rattus norvegicus, UniProt Q8VIJ5); test: Inhibition of OGA in rat PC12 cells assessed as OGlcNAcylated protein level incubated for 24 hrs by ELISA; format: cell-based
T3 sequence (Q8VIJ5 whole entry): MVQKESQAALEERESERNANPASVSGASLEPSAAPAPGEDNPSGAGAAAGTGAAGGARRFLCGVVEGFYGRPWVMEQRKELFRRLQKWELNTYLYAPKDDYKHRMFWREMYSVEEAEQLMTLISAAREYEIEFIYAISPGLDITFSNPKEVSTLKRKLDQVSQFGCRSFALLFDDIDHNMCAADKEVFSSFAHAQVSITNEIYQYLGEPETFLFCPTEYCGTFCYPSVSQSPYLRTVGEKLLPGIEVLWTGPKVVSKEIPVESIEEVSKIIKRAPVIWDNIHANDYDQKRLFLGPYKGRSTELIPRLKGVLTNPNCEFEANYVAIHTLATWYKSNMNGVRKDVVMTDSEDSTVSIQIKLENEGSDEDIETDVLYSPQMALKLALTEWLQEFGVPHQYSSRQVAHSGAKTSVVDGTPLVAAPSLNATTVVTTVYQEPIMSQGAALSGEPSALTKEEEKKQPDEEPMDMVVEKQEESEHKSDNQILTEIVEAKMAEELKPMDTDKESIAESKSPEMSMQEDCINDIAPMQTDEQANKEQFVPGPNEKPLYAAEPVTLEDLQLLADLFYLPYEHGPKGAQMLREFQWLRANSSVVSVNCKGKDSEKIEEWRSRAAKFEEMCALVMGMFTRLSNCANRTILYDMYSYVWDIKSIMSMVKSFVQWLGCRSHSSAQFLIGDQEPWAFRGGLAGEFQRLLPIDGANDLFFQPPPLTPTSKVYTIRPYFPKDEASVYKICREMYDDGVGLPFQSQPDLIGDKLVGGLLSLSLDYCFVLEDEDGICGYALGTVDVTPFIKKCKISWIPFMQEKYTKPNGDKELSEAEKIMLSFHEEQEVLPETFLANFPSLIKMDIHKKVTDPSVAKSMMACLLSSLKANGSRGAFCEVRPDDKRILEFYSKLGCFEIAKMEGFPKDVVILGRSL

Rattus norvegicus [7] = test: Elevation of O-protein in rat brain at 3 mg/kg, po measured after 8 hrs relative to control; format: functional
[8] = Ratio of drug uptake in rat brain to plasma at 3 mg/kg, po measured after 8 hrs; format: ADME, organism-based; conditions: read-out: BPR
[9] = Drug uptake in rat brain at 3 mg/kg, po measured after 8 hrs; format: ADME, organism-based; conditions: in vivo
[10] = Fraction unbound in Wistar Han rat plasma at 2.5 uM by equilibrium dialysis; format: ADME, cell-free
Protein O-GlcNAcase [11] = molecular target: T4, Protein O-GlcNAcase (Homo sapiens, UniProt O60502); test: Inhibition of recombinant human OGA
T4 sequence (O60502 whole entry): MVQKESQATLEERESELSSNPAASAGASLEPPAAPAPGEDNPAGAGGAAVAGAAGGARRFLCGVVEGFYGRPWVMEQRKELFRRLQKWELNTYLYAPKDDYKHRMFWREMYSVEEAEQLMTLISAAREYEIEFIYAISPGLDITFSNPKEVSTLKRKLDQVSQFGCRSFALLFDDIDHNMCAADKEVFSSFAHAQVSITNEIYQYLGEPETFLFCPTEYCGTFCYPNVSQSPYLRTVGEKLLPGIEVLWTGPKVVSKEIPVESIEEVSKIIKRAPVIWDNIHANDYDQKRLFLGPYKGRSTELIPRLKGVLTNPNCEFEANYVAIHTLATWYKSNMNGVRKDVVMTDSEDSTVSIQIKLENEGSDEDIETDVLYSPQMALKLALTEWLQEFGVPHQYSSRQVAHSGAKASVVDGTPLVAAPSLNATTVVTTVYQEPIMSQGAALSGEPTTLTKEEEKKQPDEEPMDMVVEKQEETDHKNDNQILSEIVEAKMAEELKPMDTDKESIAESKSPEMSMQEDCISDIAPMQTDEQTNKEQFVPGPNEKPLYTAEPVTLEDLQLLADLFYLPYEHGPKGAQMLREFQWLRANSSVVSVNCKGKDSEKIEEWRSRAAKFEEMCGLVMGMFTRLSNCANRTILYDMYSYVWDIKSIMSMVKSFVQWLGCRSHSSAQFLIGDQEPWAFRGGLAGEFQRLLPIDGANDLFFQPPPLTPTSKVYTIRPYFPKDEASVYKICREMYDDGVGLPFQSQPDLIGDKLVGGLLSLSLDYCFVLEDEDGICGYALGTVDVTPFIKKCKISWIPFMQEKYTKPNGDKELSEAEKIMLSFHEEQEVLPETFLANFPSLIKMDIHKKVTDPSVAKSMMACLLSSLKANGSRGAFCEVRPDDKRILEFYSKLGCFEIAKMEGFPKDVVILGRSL

[12] = Fraction unbound in human plasma at 2.5 uM by equilibrium dialysis; format: ADME, cell-free
[13] = Volume of distribution at steady state in Wistar Han rat at 2 mg/kg, iv or 3 mg/kg, po; format: ADME, organism-based; conditions: in vivo, read-out: Vdss
[14] = Clearance in Wistar Han rat at 2 mg/kg, iv; format: ADME, organism-based; conditions: in vivo
[15] = Half life in Wistar Han rat at 2 mg/kg, iv; format: ADME, organism-based; conditions: in vivo
[16] = Oral bioavailability in Wistar Han rat at 3 mg/kg; format: ADME, organism-based; conditions: in vivo
[17] = AUCN in Wistar Han rat at 3 mg/kg, po; format: ADME, organism-based; conditions: in vivo
[18] = Volume of distribution at steady state in Wistar Han rat at 2 mg/kg, iv or 10 mg/kg, po; format: ADME, organism-based; conditions: in vivo, read-out: Vdss
[19] = Oral bioavailability in Wistar Han rat at 10 mg/kg; format: ADME, organism-based; conditions: in vivo
[20] = AUCN in Wistar Han rat at 10 mg/kg, po; format: ADME, organism-based; conditions: in vivo
Rattus norvegicus [21] = test: Elevation of O-protein in rat brain at 3 mg/kg, po measured after 24 hrs relative to control; format: functional
[22] = Drug uptake in rat brain at 3 mg/kg, po measured after 24 hrs; format: ADME, organism-based; conditions: in vivo
[23] = Ratio of drug uptake in rat brain to plasma at 3 mg/kg, po measured after 24 hrs; format: ADME, organism-based; conditions: read-out: BPR

Row | Compound | EC50 [1] | Ki [2] | IC50 (Cytochrome P450 3A4) | IC50 (Cytochrome P450 2C9) | IC50 (Cytochrome P450 2D6) | Papp (MDR1) | EC50 (Protein O-GlcNAcase [6]) | Kp at 8 h [8] | Drug uptake [9] | fraction unbound at 2.5 µM [10] | Ki (Protein O-GlcNAcase [11]) | fraction unbound at 2.5 µM [12] | Vd [13] | clearance [14] | half-life [15] | bioavailability [16] | IC50 [3] | IC50 [4] | IC50 [5] | fold change (FC) (Rattus norvegicus [7]) | other results
1 | CCNC1=N[C@@H]2C[C@H](O)[C@@H](CO)O[C@@H]2S1 | > 30 µM | > 10 µM | > 50 µM | > 50 µM | > 50 µM | 26 nm/s |  |  |  |  |  |  |  |  |  |  | > 30 µM | > 30 µM | > 30 µM |  | 
2 | CCNC1=N[C@@H]2[C@@H](F)[C@H](O)[C@@H](CO)O[C@@H]2S1 | > 30 µM | > 10 µM | > 50 µM | > 50 µM | > 50 µM | 27 nm/s | 0.443 µM |  |  |  | 0.029 µM |  |  | 1.91 L/h/kg | 2.4 h |  | > 30 µM | > 30 µM | > 30 µM |  | Vd [18]: 2 L/kg; bioavailability [19]: 104%; AUC/dose [20]: 2.16 µM·kg·h/mg
3 | CCN(C)C1=N[C@@H]2[C@@H](O)[C@H](O)[C@@H](CO)O[C@@H]2S1 | > 30 µM | 3.6 µM | > 50 µM | > 50 µM | > 50 µM | 11 nm/s | 0.0367 µM |  |  |  | 0.0055 µM |  |  | 3.98 L/h/kg | 1.89 h |  | > 30 µM | > 30 µM | > 30 µM |  | Vd [18]: 5.39 L/kg; bioavailability [19]: 62%; AUC/dose [20]: 0.598 µM·kg·h/mg

Now those with a lower Ki [2], led by results:

Row | EC50 [1] | Ki [2] | IC50 (Cytochrome P450 3A4) | IC50 (Cytochrome P450 2C9) | IC50 (Cytochrome P450 2D6) | Papp (MDR1) | EC50 (Protein O-GlcNAcase [6]) | Kp at 8 h [8] | Drug uptake [9] | fraction unbound at 2.5 µM [10] | Ki (Protein O-GlcNAcase [11]) | fraction unbound at 2.5 µM [12] | Vd [13] | clearance [14] | half-life [15] | bioavailability [16] | Compound | IC50 [3] | IC50 [4] | IC50 [5] | fold change (FC) (Rattus norvegicus [7]) | other results
4 |  | 1.3 µM |  |  |  | 57 nm/s | 0.00171 µM | 1.33 | 0.133 nmol/g | 0.83 | 0.00036 µM | 0.77 | 1.72 L/kg | 1.63 L/h/kg | 1.48 h | 93.8% | CNC1=N[C@@H]2[C@@H](O)[C@H](O)[C@@H](C(F)F)O[C@@H]2S1 |  |  |  | 2 | AUC/dose [17]: 2.54 µM·kg·h/mg
5 |  | 1.6 µM |  |  |  | 68 nm/s | 0.177 µM | 0.9 | 0.222 nmol/g | > 0.99 | 0.009 µM | > 0.99 | 10.5 L/kg | 2.62 L/h/kg |  | 75.3% | CN(C)C1=N[C@@H]2[C@@H](O)[C@H](O)[C@@H](CF)O[C@@H]2S1 |  |  |  | 2.33 | fold change (FC) (Rattus norvegicus [21]): 1.77; Drug uptake [22]: 0.038 nmol/g; AUC/dose [17]: 0.954 µM·kg·h/mg; Kp at 24 h [23]: 1.53
